These results are taken from article PMC8451667 (Emerging Microbes & Infections, 2021).

Where two headings read alike, the source gives them in different places.

In assay [1] the test system is Ca/04 OsR (A/California/04/2009 (H1N1)-H275Y). Also on record: species or system mice. As to conditions: mouse, in vivo.
Assay [2] has as its system A/California/04/2009 (H1N1) Ca/04. The assay is described as follows: microbe, parasite or virus in culture. Type of assay: cell-based. The note with it: Influenza A virus.
Assay [3] deals with A/California/07/2009 (H1N1). Description: microbe, parasite or virus in culture. Type of assay: cell-based, Influenza A virus.
Where [4] appears, read: H1N1, read-out: EC50 (μM), A/California/04/2009 (H1N1) Ca/04.

Take `CCOC(=O)C1=C[C@@H](OC(CC)CC)[C@H](NC(C)=O)[C@@H](N)C1` [Oseltamivir, Oseltamivir phosphate, reference compound]: in assay [1], the Body weight loss is around 20% and the Survival stood at 16%.
As for `CCC(CC)O[C@@H]1C=C(C(=O)O)C[C@H](N)[C@H]1NC(C)=O` [Oseltamivir carboxylate], in assay [2] (H1N1, read-out: EC50 (nM), A/California/04/2009 (H1N1) Ca/04), the EC50 was 1.4 ± 0.32 nM.
For `NC12CC3CC(CC(C3)C1)C2` [Amantadine], the EC50 in assay [2] (setting [4]) was above 20000 nM.
Consider `[2H]C(NC12CC3CC(CC(O)(C3)C1)C2)c1ccc(I)s1` (stereo not shown) [UAWJ280, 3-{[(5-iodothiophen-2-yl)(D)methyl]amino}adamantan-1-ol], for which the “EC50 increase at passage 6” value in assay [3] worked out at 7 fold. Also, the EC50 was found to be 0.27 µM in assay [3] (Influenza A virus, H1N1, read-out: EC50 (μM), serial passage) and 270 ± 40 nM in assay [2] (setting [4]). This compound also yielded a Body weight loss in assay [1] of around 15%. Moreover, in assay [1], the Survival was 65%. The Clinical signs result in assay [1] (ip) is listed as “mild clinical signs”.
